Measured values published in patent publication US7312358B2, “Pharmaceutically active sulfanilide derivatives” (Laboratoires Serono SA, priority 2000, dated 2007).
pIC50, pKi: −log10 of the molar value.

Assays:
hV1a = hV1a (Homo sapiens, UniProt P37288); test: In vitro competition binding assay on hV1a receptor with scintillating proximity assay; design: expressed in transfected cells; host or cells: CHO cells (membranes); conditions: membranes from CHO cells expressing hV1a receptor; radiolabel [125I]-LVA; SPA; read-out: Binding Affinity Human V1a Ki
Experimental: b) In Vitro Competition Binding Assay on hV1a Receptor with Scintillating Proximity Assay
This assays allows to determine the affinity of the test compounds for the V1a receptor. Membranes from CHO cells expressing the hV1a receptor were resuspended in buffer containing 50 mM Tris-HCl, pH 7.4, 5 mM MgCl2 and 0.1% BSA (w/v). The membranes (5-10 μg) were mixed with 0.2 mg wheat-germ aglutinin (WGA) SPA bead (type A) and 0.03 nM of the radiolabel [^125I]-LVA (LVA being Linear Vasopressin Antagonist and is an analogue of AVP for competition binding experiments). Non-specific binding was determined in the presence of 1 μM AVP. The total assay volume was 100 μl. The plates (Corning 0 NBS plate) were incubated at room temperature for 2 hours and counted on a Mibrobeta plate counter. The tests compounds were used in concentrations of 30 μM, 10 μM, 1 μM, 300 nM, 100 nM, 10 nM, 1 nM, 100 pM, 10 pM. The competition binding data were analysed using the iterative, nonlinear, curve-fitting program, Graph pad “Prism”.
(§1) The binding affinities to the Via receptor of the sulfanilide derivatives claimed in the formula I were assessed using the above described in vitro biological assay. The values refer to the binding affinity (IC50; HM) of the example compounds according to formula I to the V1a receptor. From the values shown in Table 1 it can be derived that said test compounds according to formula I do show a significant binding to the Via receptor.

hOT-R = biological target: T1, hOT-R (Homo sapiens, UniProt P30559); test: Inhibition of oxytocin mediated Ca2+-mobilization by FLIPR (HEK cells); type: cell-based; conditions: fluo-4, OT 40 nM
T1 construct: expressed in transfected cells; host or cells: HEK (Human Embryonic Kidney) cells
T1 sequence (P30559 1-389): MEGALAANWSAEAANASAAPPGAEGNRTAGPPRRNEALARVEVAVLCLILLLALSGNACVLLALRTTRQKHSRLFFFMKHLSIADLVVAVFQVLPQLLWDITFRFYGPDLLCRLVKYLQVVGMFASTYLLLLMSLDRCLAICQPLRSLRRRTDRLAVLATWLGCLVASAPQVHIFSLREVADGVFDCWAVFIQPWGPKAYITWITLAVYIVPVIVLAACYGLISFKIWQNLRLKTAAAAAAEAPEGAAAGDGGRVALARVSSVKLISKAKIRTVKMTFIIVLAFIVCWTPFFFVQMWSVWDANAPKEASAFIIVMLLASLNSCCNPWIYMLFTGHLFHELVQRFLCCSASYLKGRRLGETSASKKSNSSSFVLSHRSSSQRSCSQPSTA
Source text: c) Functional Assay No. 1: Inhibition of Oxytocitn Mediated Ca^2+-Mobilization by FLIPR (Fluorescent Imaging Plate Reader)
FLIPR is a machine for fluorescence imaging using a laser that is capable of illuminating a 96-well plate and a means of simultaneously reading each well thus enabling rapid measurements on a large number of samples.
This assay intends to show the inhibition of the OT/OT-R mediated calcium mobilisation—being necessary to cause uterine contractions—by using test compounds of formula (I).
Preparing the plates: FLIPR-plates were pre-coated with PLL (Poly-L-Lysine) 10 μg/ml+0.1% gelatine to attach the HEK (Human Embryonic Kidney) cells for 30 min up to 2 days at 37° C. The cells were plated out into 96-well plates (60000 cells/well).
Labelling with fluo-4: […] fluo-4 (fluorescent marker) were dissolved in 20 μl pluronic acid (20% in DMSO). The dissolved fluo-4 was then diluted in 10 ml DMEM (Dubecco's Minimal Essential Medium-F12 medium without FCS (Fetal Calf Serum). The medium was removed from the plates, followed by one wash with DNEM-F12 medium. Now, 100 μl of the DMEM-F12 medium containing fluo-4 were added and the cells incubated for 1.5-2 h (HEK-cells). The cells now contain the fluorescent marker.
Buffer: 145 mM NaCl, 5 mM KCl, 1 mM MgCl2, 10 mM Hepes, 10 mM Glucose, EGTA (Ethylene-bis oxyethylene nitrilo tetraacetic acid). Adjust to pH 7.4.
Performance of the assay: A minimum of 80 μl/well of antagonists (5×) in the above buffer (1×) were prepared (96-well plates). The antagonists were added to the well-plates at different concentrations (30 μM, 10 μM, 1 μM, 300 nM, 100 nM, 10 nM, 1 nM, 100 pM, 10 pM).
OT is added at a concentration of 40 nM.
The fluorescent marker being sensitive to the amount of Ca^2+ mobilized within the cell may be quantified by the FLIPR machine.
The activities of the sulfanilide derivatives according to formula I were assessed using the above described in vitro biological assay. The values refer to the capacity of the example compounds according to formula I to effectively antagonize oxytocin-induced intracellular Ca^2+-mobilization mediated by the oxytocin receptor.

hOT receptor = biological target: T2, hOT receptor (Homo sapiens, UniProt P30559); test: In vitro competition binding assay on hOT receptor with scintillating proximity assay; conditions: membranes from HEK293EBNA cells expressing hOT receptor; radiolabel [125I]-OVTA; SPA; read-out: Binding Affinity Human OT-R Ki
T2 construct: expressed in transfected cells; host or cells: HEK293EBNA cells (membranes)
T2 sequence (P30559 1-389): T1 sequence (P30559 1-389)
Experimental: a) In Vitro Competition Binding Assay on hOT Receptor with Scintillating Proximity Assay (Pharmaceutical Manufacturing International, 1992, p. 49-53 by Cook, N. D. et al)
This assays allows to determine the affinity of the test compounds for the OT receptor. Membranes from HEK293EBNA cells expressing the hOT receptor were resuspended in buffer containing 50 mM Tris-HCl, pH 7.4, 5 mM MgCl2 and 0.1% BSA (w/v). The membranes (2-4 μg) were mixed with 0.1 mg wheat-germ aglutinin (WGA) SPA bead (type A) and 0.2 nM of the radiolabel [^125I]-OVTA (OVTA being […] and is an analogue of OT for competition binding experiments). Non-specific binding was determined in the presence of 1 μM Oxytocin. The total assay volume was 100 μl. The plates (Corning (D NBS plate) were incubated at room temperature for 30 min and counted on a Mibrobeta plate counter. The tests compounds were used in concentrations of 30 μM, 10 μM, 1 μM, 300 nM, 100 nM, 10 nM, 1 nM, 100 pM, 10 pM. The competition binding data were analysed using the iterative, nonlinear, curve-fitting program, “Prism”.
as §1, with “oxytocin” for “Via”, “μM)” for “HM)”, “Oxytocin” for “V1a”

[1] = tested on: oxytocin-induced uterine contractions in the rat; test: In vivo model for inhibition of uterine contractions; conditions: anaesthetised DES-treated non-pregnant female rat, route not given
Experimental: f) In Vivo Model for Inhibition of Uterine Contractions
The assay intends to show the biological effect of tested compounds in an in vivo model of preterm labor, premature birth.
Non-pregnant Charles River CD(SD) BR female rats (9-10 weeks old, 200-250 g) were treated at 18 and 24 hours before the experiment with 250 μg/kg, i.p. diethylstilbestrol (DES). For the assay, the animal was anaesthetised by urethane (1.75 g/kg, i.p.) and placed on an homeothennic operating table. The trachea was isolated and cannulated with a suitable polyethylene (PE) tubing. A midline incision at the hypogastrium level was made and one uterine horn exposed, its cephalic end cannulated with a PE240 tubing and, after filling the internal cavity with 0.2 ml of sterile physiological saline, connected to a “Gemini” amplifying/recording system via a P231D Gould Statham pressure transducer. For the i.v. route of administration of the test compounds, one jugular vein was isolated and cannulated with a PE60 tubing connected to a butterfly needle to allow the administration by a dispensing syringe. In the case of intraduodenal administration of the test compounds, the duodenum was isolated and similarly cannulated through a small incision in its wall. One carotid artery was also isolated and cannulated with PE60 catheter and connected to a suitable syringe for blood sample collection (see below). After a stabilization period, the same dose of oxytocin was repeatedly injected intravenously at 30-min intervals. […] Further injections of the same dose of oxytocin were then made for a suitable time after treatment to assess inhibitory effects of the compounds under study. The contractile response of the uterus to oxytocin was quantified by measuring the intra-uterine pressure and the number of contractions. The effect of the reference and test compounds were evaluated by comparing pre- and post-treatment pressure values. In addition, at 2, 30, 90 and 210 minutes after test compound administration, a 0.5-ml blood sample was withdrawn from the cannulated carotid artery of each experimental animal. Plasma was obtained by standard laboratory procedure and the resulting samples were stored at −20° C.
The activities of the sulfanilide derivatives claimed in the Formula I were assessed using the above described in vivo biological assay. The values refer to the capacity of the example compound according to Formula I to effectively antagonize oxytocin-induced uterine contractions in the rat.

hV1a, sequence (P37288 whole entry): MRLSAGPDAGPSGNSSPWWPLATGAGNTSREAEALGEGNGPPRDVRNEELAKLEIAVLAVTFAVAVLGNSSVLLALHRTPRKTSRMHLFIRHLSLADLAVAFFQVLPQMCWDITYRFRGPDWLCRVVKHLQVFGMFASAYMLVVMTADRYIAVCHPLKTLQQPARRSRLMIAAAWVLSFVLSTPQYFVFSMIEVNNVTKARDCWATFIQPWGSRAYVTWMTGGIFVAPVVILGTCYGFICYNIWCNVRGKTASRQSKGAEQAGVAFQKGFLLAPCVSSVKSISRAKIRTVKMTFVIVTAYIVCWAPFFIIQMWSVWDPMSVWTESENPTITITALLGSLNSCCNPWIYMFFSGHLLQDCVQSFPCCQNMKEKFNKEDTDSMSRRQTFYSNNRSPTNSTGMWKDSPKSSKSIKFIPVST

In the case of `COc1ccc(N(CC(=O)Nc2ccc(C)cc2C)S(=O)(=O)c2ccc(OC)c(OC)c2)cc1` [2-[(3,4-Dimethoxy-benzenesulfonyl)-(4-methoxy-phenyl)amino]-N-(2,4-dimethyl-phenyl)-acetamide], the pKi (hV1a) was 6.87.

For `COc1ccc(N(CC(=O)NCCSc2ccccn2)S(=O)(=O)c2ccc(C)cc2)cc1` [2-[(4-Methoxy-phenyl)-(toluene-4-sulfonyl)-amino]-N-[2-(pyridin-2-ylsulfanyl)-ethyl]-acetamide], the pKi (hV1a) was 6.37.

`COc1ccc(N(CC(=O)Nc2ccc(C)cc2C)S(=O)(=O)c2ccccc2)cc1` [2-[Benzenesulfonyl-(4-methoxy-phenyl)-amino]-N-(2,4-dimethyl-phenyl)-acetamide] gave a pKi (hV1a) of 7.35.

In the case of `O=C(CN(c1ccc(Cl)cc1)S(=O)(=O)c1ccc(OCCN2CCOCC2)cc1)NN=C1C(=O)Nc2ccccc21` [Example 55, N-(4-chlorophenyl)-4-[2-(4-morpholinyl)ethoxy]-N-{2-oxo-2-[2-(2-oxo-1,2-dihydro-3H-indol-3-ylidene)hydrazino]ethyl}benzenesulfonamide], the pIC50 (hOT-R) was 8.15, the pKi (hOT receptor) was 9.10 and the “% Reduction of Uterine Contraction” value ([1]; dose 0.3 mg/kg) was 4.3 ± 1.7%. For the same molecule, the “% Reduction of Uterine Contraction” value ([1]; dose 1 mg/kg) was 18.2 ± 3.7%, the “% Reduction of Uterine Contraction” value ([1]; dose 3 mg/kg) was 39.8 ± 5.1% and the “% Reduction of Uterine Contraction” value ([1]; dose 10 mg/kg) was 41.7 ± 12.5%. For the same molecule, the “% Reduction of Uterine Contraction” value ([1]; dose 30 mg/kg) was 71.3 ± 6.4%.

With `CN(C)CCCOc1ccc(S(=O)(=O)N(CC(=O)N/N=C2\C(=O)Nc3ccccc32)c2ccc(Cl)cc2)cc1` [Example 67, N-(4-chlorophenyl)-4-[3-(dimethylamino)propoxy]-N-{2-oxo-2-[(2Z)-2-(2-oxo-1,2-dihydro-3H-indol-3-ylidene)hydrazino]ethyl}benzenesulfonamide] the pIC50 (hOT-R) was 7.87, the pKi (hOT receptor) was 9.22 and the “% Reduction of Uterine Contraction” value ([1]; dose 0.3 mg/kg) was 9.3 ± 2.5%. For the same molecule, the “% Reduction of Uterine Contraction” value ([1]; dose 1 mg/kg) was 20.8 ± 2.2%, the “% Reduction of Uterine Contraction” value ([1]; dose 3 mg/kg) was 34.4 ± 3.9% and the “% Reduction of Uterine Contraction” value ([1]; dose 10 mg/kg) was 57.1 ± 4.8%. For the same molecule, the “% Reduction of Uterine Contraction” value ([1]; dose 30 mg/kg) was 67.4 ± 7.1%.

With `Cc1ccc(N(CC(=O)NCC(O)c2ccccc2)S(=O)(=O)c2ccc(C)cc2)cc1` (stereo not shown) [N-(2-Hydroxy-2-phenyl-ethyl)-2-[(toluene-4-sulfonyl)-p-tolyl-amino]-acetamide] the pKi (hV1a) was 6.43.

Molecule `O=C(CN(c1cccc(Br)c1)S(=O)(=O)c1ccccc1)N/N=C/c1ccccc1O` [N-(3-Bromo-phenyl)-N-(2-hydroxy-benzylidene-hydrazinocarbonylmethyl)-benzenesulfonamide] has a pKi (hV1a) of 6.30.

With `O=C(CN(c1ccc(Br)cc1)S(=O)(=O)c1ccccc1)N1CCc2ccccc2C1` [N-(4-Bromo-phenyl)-N-[2-(3,4-dihydro-1H-isoquinolin-2-yl)-2-oxo-ethyl]-benzenesulfonamide] the pKi (hV1a) was 7.24.

In the case of `O=C(CN(c1ccc(Cl)cc1)S(=O)(=O)c1ccccc1)N/N=C/c1ccccc1O` [N-(4-Chloro-phenyl)-N-(2-hydroxy-benzylidene-hydrazinocarbonylmethyl)-benzenesulfonamide], the pKi (hV1a) was 6.12.

In the case of `CCOc1ccc(S(=O)(=O)N(CC(=O)N2CCc3ccccc3C2)c2ccc(C)cc2)cc1` [N-[2-(3,4-Dihydro-1H-isoquinolin-2-yl)-2-oxo-ethyl]-4-ethoxy-N-p-tolyl-benzenesulfonamide], the pKi (hOT receptor) was 6.61 and the pKi (hV1a) was 6.43.

For `C/C(=N\NC(=O)CN(c1ccc(Br)cc1)S(=O)(=O)c1ccccc1)c1ccccc1O` [drawing 134, N-(4-Bromo-phenyl)-N-[1-(2-hydroxy-phenyl)-ethylidenehydrazinocarbonylmethyl]-benzenesulfonamide], the pKi (hV1a) was 6.41.

`C/C(=N\NC(=O)CN(c1ccc(Br)cc1)S(=O)(=O)c1ccccc1)c1ccccc1O` [drawing 139, N-(4-Bromo-phenyl)-N-[1-(2-hydroxy-phenyl)-ethylidene-hydrazinocarbonylmethyl]-benzenesulfonamide] showed a pKi (hV1a) of 6.10.
